Results from ChEMBL document CHEMBL1145028, “Retroinverso analogue of the antiviral octapeptide C8 inhibits feline immunodeficiency virus in serum” (J Med Chem, 2003).
Converted amounts (≈) assume the structure as drawn.

Legend:
[1] = system: Feline immunodeficiency virus; experiment: Concentration required to inhibit feline immunodeficiency virus (FIV) replication in 50% normal cat serum (NCS); format: functional, organism-based
[2] = system: Feline immunodeficiency virus; experiment: Concentration required to inhibit feline immunodeficiency virus (FIV) replication in normal tissue culture medium; format: functional, organism-based

| Compound | IC50 [1] | IC50 [2] |
| --- | --- | --- |
| CC[C@@H](C)[C@@H](NC(C)=O)C(=O)N[C@H](Cc1c[nH]c2ccccc12)C(=O)NCC(=O)N[C@@H](C(=O)N[C@H](Cc1c[nH]c2ccccc12)C(=O)N[C@H](CC(=O)O)C(=O)N[C@H](CCC(=O)O)C(=O)N[C@H](Cc1c[nH]c2ccccc12)C(N)=O)C(C)C | 0.8 µg/mL (≈ 0.707 µM) | 0.63 µg/mL (≈ 0.557 µM) |
| Ac-WEDWVGWI-NH2 | 5.21 µg/mL | 0.15 µg/mL |
